# From patent publication US7781565B2 (priority 2006, dated 2010)
# “Also recorded” adds a separate entry of the source.
# Test system: NCI-60 cell lines
# Format: cell-based, human
substance,measurement,value
ASEGGRA,Cell Line (NCI-60 cell line the peptide and its motif are associated with),SK-OV-3-3 Ovarian
AAGRAGC,Cell Line with which the peptide (and its tripeptide motif) is associated,H322-Lung
IGASLLG,Cell Line (NCI-60 cell line the peptide is associated with),SF-268 CNS
SLGLRNQ,Cell Line with which the peptide (and its tripeptide motif) is associated,CCRF-CEM Leukemia
WGSSTVR,Cell Line with which the peptide (and its tripeptide motif) is associated,H322-Lung
LEVGRLF,Cell Line (NCI-60 cell line the peptide and its motif are associated with),SK-OV-3-3 Ovarian
GSGSVRT,Cell Line the peptide is associated with (peptide recovered from phage library selection on this NCI-60 cell line),BT-549 Breast
CPGSGII,Cell Line (NCI-60 cell line the peptide is associated with),LOX-IMVI Melanoma
GGSKGSA,Cell Line (NCI-60 cell line the peptide and its motif are associated with),UACC 257 Melanoma
GTFGVLG,Cell Line with which the peptide (and its tripeptide motif) is associated,Hop-62-Lung
GGRPVER,Cell Line the peptide is associated with (peptide recovered from phage library selection on this NCI-60 cell line),UO31 Renal
SVVGVST,Cell Line (NCI-60 cell line the peptide is associated with),HCT-15 Colon
ASAGAVS,Cell Line (NCI-60 cell line the peptide and its motif are associated with),786-0 Renal
HGRLAFG,Cell Line (NCI-60 cell line the peptide and its motif are associated with),SK-MEL-28 Melanoma
LIGGLLS,Cell Line (NCI-60 cell line the peptide and its motif are associated with),SK-MEL-5 Melanoma
TRVSGSG,Cell Line the peptide is associated with (peptide recovered from phage library selection on this NCI-60 cell line),BT-549 Breast
SVDRGVI,Cell Line (NCI-60 cell line the peptide is associated with),LOX-IMVI Melanoma
ERASQTA,Cell Line with which the peptide (and its tripeptide motif) is associated,K-562-Leukemia
GGVRIAA,Cell Line (NCI-60 cell line the peptide is associated with),HCT-116 Colon
RRPGLRS,Cell Line (NCI-60 cell line the peptide is associated with),HT-29 Colon
TAAAVLL,Cell Line (NCI-60 cell line the peptide and its motif are associated with),OVCAR-5 Ovarian
LGGLSPH,Cell Line with which the peptide (and its tripeptide motif) is associated,H322-Lung
VSGSGTA,Cell Line (NCI-60 cell line the peptide and its motif are associated with),PC3 Prostate
GLVSVEA,Cell Line with which the peptide (and its tripeptide motif) is associated,A549-Lung
FGLRSRL,Cell Line with which the peptide (and its tripeptide motif) is associated,SR Leukemia
RSSSSTR,Cell Line (NCI-60 cell line the peptide is associated with),SNB-75 CNS
LRVYGEG,Cell Line (NCI-60 cell line the peptide is associated with),SNB-75 CNS
GPSSMTF,Cell Line (NCI-60 cell line the peptide is associated with),COLO-205-Colon
GLVSSLP,Cell Line (NCI-60 cell line the peptide is associated with),HCT-15 Colon
YWGGSVP,Cell Line the peptide is associated with (peptide recovered from phage library selection on this NCI-60 cell line),UO31 Renal
SKYNLRS,Cell Line (NCI-60 cell line the peptide is associated with),HT-29 Colon
SVTGRVS,Cell Line (NCI-60 cell line the peptide and its motif are associated with),786-0 Renal
GAVTSAD,Cell Line (NCI-60 cell line the peptide and its motif are associated with),SK-MEL-2 Melanoma
GGLMPRY,Cell Line the peptide is associated with (peptide recovered from phage library selection on this NCI-60 cell line),BT-549 Breast
RRSSKQA,Cell Line with which the peptide (and its tripeptide motif) is associated,A549-Lung
AGGFGVL,Cell Line (NCI-60 cell line the peptide and its motif are associated with),IGROV1 Ovarian
VRLSGRA,Cell Line (NCI-60 cell line the peptide is associated with),SNB-19 CNS; also recorded: SF-539 CNS
RSWNAGR,Cell Line the peptide is associated with (peptide recovered from phage library selection on this NCI-60 cell line),UO31 Renal
MFARGWE,Cell Line with which the peptide (and its tripeptide motif) is associated,CCRF-CEM Leukemia
LRSSLVS,Cell Line the peptide is associated with (peptide recovered from phage library selection on this NCI-60 cell line),RXF393 Renal
GWLNAAV,Cell Line (NCI-60 cell line the peptide and its motif are associated with),UACC 257 Melanoma
GSWARGY,Cell Line (NCI-60 cell line the peptide is associated with),HCT-15 Colon
HFIRGSV,Cell Line (NCI-60 cell line the peptide is associated with),HT-29 Colon
GVNGSVS,Cell Line (NCI-60 cell line the peptide and its motif are associated with),SK-MEL-28 Melanoma
GGRAIGA,Cell Line with which the peptide (and its tripeptide motif) is associated,Hop-92-Lung
GRVPGFE,Cell Line with which the peptide (and its tripeptide motif) is associated,H322-Lung
AGGGPPA,Cell Line with which the peptide (and its tripeptide motif) is associated,EKVX-Lung
VIGSRLS,Cell Line with which the peptide (and its tripeptide motif) is associated,EKVX-Lung
LIGPGGR,Cell Line with which the peptide (and its tripeptide motif) is associated,H322-Lung
GVIGRGS,Cell Line (NCI-60 cell line the peptide and its motif are associated with),UACC62 Melanoma
SSVASLV,Cell Line (NCI-60 cell line the peptide is associated with),SNB-19 CNS; also recorded: SF-539 CNS
GLLSAGI,Cell Line (NCI-60 cell line the peptide is associated with),SF-268 CNS
SRASDVT,Cell Line (NCI-60 cell line the peptide is associated with),SW620-Colon
SAVSESP,Cell Line (NCI-60 cell line the peptide and its motif are associated with),SK-OV-3-3 Ovarian
GGVSRMR,Cell Line the peptide is associated with (peptide recovered from phage library selection on this NCI-60 cell line),CAIK-1 Renal
LLSILKA,Cell Line (NCI-60 cell line the peptide and its motif are associated with),IGROV1 Ovarian
RAGRDAP,Cell Line (NCI-60 cell line the peptide and its motif are associated with),UACC62 Melanoma
TTGSVIV,Cell Line with which the peptide (and its tripeptide motif) is associated,H23-Lung
ATGSGSV,Cell Line (NCI-60 cell line the peptide and its motif are associated with),PC3 Prostate
TRYSLRS,Cell Line the peptide is associated with (peptide recovered from phage library selection on this NCI-60 cell line),TK-10 Renal
ASGTLLR,Cell Line (NCI-60 cell line the peptide and its motif are associated with),SK-MEL-28 Melanoma
RGPSQVL,Cell Line (NCI-60 cell line the peptide and its motif are associated with),PC3 Prostate
VLGMRSS,Cell Line with which the peptide (and its tripeptide motif) is associated,SR Leukemia
LPRRAVF,Cell Line (NCI-60 cell line the peptide and its motif are associated with),DU-145 Prostate
EHYRLRS,Cell Line (NCI-60 cell line the peptide is associated with),HT-29 Colon
PGAVLTV,Cell Line (NCI-60 cell line the peptide is associated with),COLO-205-Colon
PGGSDAA,Cell Line (NCI-60 cell line the peptide is associated with),SNB-19 CNS
DGGRRSS,Cell Line with which the peptide (and its tripeptide motif) is associated,EKVX-Lung
ASAVSGR,Cell Line (NCI-60 cell line the peptide is associated with),HT-29 Colon
GGVLGSD,Cell Line (NCI-60 cell line the peptide is associated with),LOX-IMVI Melanoma
LAQGRLA,Cell Line (NCI-60 cell line the peptide is associated with),HT-29 Colon
ADGRLRY,Cell Line (NCI-60 cell line the peptide is associated with),KM-12C Colon
SDENGRL,Cell Line with which the peptide (and its tripeptide motif) is associated,HL-60-Leukemia
GVRTAGP,Cell Line with which the peptide (and its tripeptide motif) is associated,A549-Lung
HGGRYRH,Cell Line (NCI-60 cell line the peptide and its motif are associated with),UACC 257 Melanoma
PLLRQQL,Cell Line the peptide is associated with (peptide recovered from phage library selection on this NCI-60 cell line),ACHN Renal
GLVRGTA,Cell Line with which the peptide (and its tripeptide motif) is associated,Molt-4-Leukemia
GWTMAAS,Cell Line the peptide is associated with (peptide recovered from phage library selection on this NCI-60 cell line),TK-10 Renal
GPFRAVP,Cell Line (NCI-60 cell line the peptide is associated with),COLO-205-Colon
SRAVIRL,Cell Line (NCI-60 cell line the peptide and its motif are associated with),OVCAR-5 Ovarian
LEAGSQL,Cell Line with which the peptide (and its tripeptide motif) is associated,H226-Lung
AEDSGGR,Cell Line the peptide is associated with (peptide recovered from phage library selection on this NCI-60 cell line),BT-549 Breast
RMGLLRQ,Cell Line (NCI-60 cell line the peptide and its motif are associated with),M14 Melanoma
SRYGLRR,Cell Line with which the peptide (and its tripeptide motif) is associated,RPMI-8226-Leukemia
NAVRGSA,Cell Line (NCI-60 cell line the peptide is associated with),HCT-116 Colon
HGRVHRL,Cell Line with which the peptide (and its tripeptide motif) is associated,H23-Lung
AHYTLRS,Cell Line (NCI-60 cell line the peptide is associated with),COLO-205-Colon
GWHGPSH,Cell Line with which the peptide (and its tripeptide motif) is associated,A549-Lung
GSNGSSH,Cell Line (NCI-60 cell line the peptide and its motif are associated with),OVCAR-8 Ovarian
GGLSVDL,Cell Line with which the peptide (and its tripeptide motif) is associated,EKVX-Lung
EVRSRGS,Cell Line with which the peptide (and its tripeptide motif) is associated,EKVX-Lung
RVGSVQW,Cell Line (NCI-60 cell line the peptide is associated with),KM-12C Colon
GGAGSRR,Cell Line the peptide is associated with (peptide recovered from phage library selection on this NCI-60 cell line),UO31 Renal
RVSRAGG,Cell Line (NCI-60 cell line the peptide and its motif are associated with),PC3 Prostate
WDQGSGY,Cell Line (NCI-60 cell line the peptide and its motif are associated with),OVCAR-4 Ovarian
VIVRGSL,Cell Line the peptide is associated with (peptide recovered from phage library selection on this NCI-60 cell line),UO31 Renal
RWRSGRV,Cell Line (NCI-60 cell line the peptide is associated with),HT-29 Colon
LGAGEGD,Cell Line (NCI-60 cell line the peptide is associated with),SNB-75 CNS
RGRVLLP,Cell Line (NCI-60 cell line the peptide and its motif are associated with),M14 Melanoma
PRVSALV,Cell Line the peptide is associated with (peptide recovered from phage library selection on this NCI-60 cell line),MDA-MB-231 Breast
RLETLLS,Cell Line the peptide is associated with (peptide recovered from phage library selection on this NCI-60 cell line),UO31 Renal
QGLVRGG,Cell Line (NCI-60 cell line the peptide and its motif are associated with),OVCAR-4 Ovarian
GGLSNVV,Cell Line (NCI-60 cell line the peptide is associated with),SW620-Colon
GGSRLLL,Cell Line with which the peptide (and its tripeptide motif) is associated,RPMI-8226-Leukemia
YATLGSS,Cell Line (NCI-60 cell line the peptide and its motif are associated with),PC3 Prostate
AEGGSGH,Cell Line with which the peptide (and its tripeptide motif) is associated,A549-Lung
MQGRVIV,Cell Line (NCI-60 cell line the peptide and its motif are associated with),SK-OV-3-3 Ovarian
GLVSTLI,Cell Line the peptide is associated with (peptide recovered from phage library selection on this NCI-60 cell line),BT-549 Breast
WRASPGM,Cell Line the peptide is associated with (peptide recovered from phage library selection on this NCI-60 cell line),BT-549 Breast
SVEGRGV,Cell Line with which the peptide (and its tripeptide motif) is associated,A549-Lung
HSRAVAP,Cell Line with which the peptide (and its tripeptide motif) is associated,SR Leukemia
GLGIMGP,Cell Line with which the peptide (and its tripeptide motif) is associated,K-562-Leukemia
VSRIGVR,Cell Line (NCI-60 cell line the peptide is associated with),LOX-IMVI Melanoma
YGIGVRL,Cell Line with which the peptide (and its tripeptide motif) is associated,H23-Lung
PPGASLY,Cell Line (NCI-60 cell line the peptide and its motif are associated with),M14 Melanoma
ISGVSDD,Cell Line the peptide is associated with (peptide recovered from phage library selection on this NCI-60 cell line),BT-549 Breast
